This is an account of results in US20230157996A1, “SMALL-MOLECULE INHIBITOR TARGETING EB VIRUS NUCLEAR ANTIGEN PROTEIN, PREPARATION METHOD AND USE THEREOF” (priority 2020, published 2023).

The assay relates to C666-1 cells. Description: C666-1 cell viability single concentration (50 μM) inhibition rate (Resazurin). In kind it is cell-based. The note with it: 50 μM compound, 72 hours, C666-1 cells; for inhibition at 50 µM: Homo sapiens, C6661, 72 h, read-out: C666-1 cell viability single concentration (50 μM) inhibition rate, Ratio* (Inh %). Summed up: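 Resazurin fluorescence (560/590 nm, 3 h development) gave the proliferation inhibition rate, normalised to DMSO-treated and cell-free blank wells. Compound was tested at a single 50 μmol/L final concentration on C666-1 cells for 72 h at 37° C, with duplicate wells, after 24 h seeding.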

Turning to `COC(=O)c1cccc(N2CC(Oc3ccc(NC(=S)Nc4ccc(Cl)cc4)cc3)C2)c1-n1cccc1` [Example 226, Methyl 3-(3-(4-(3-(4-chlorophenyl)thioureido)phenoxy)azetidin-1-yl)-2-(1H-pyrrol-1-yl)benzoate], the inhibition at 50 µM was in the range of 10 to 30%.

Take `COC(=O)c1cccc(N2CC(Oc3ccc(NC(=S)Nc4cccc(Cl)c4)cc3)C2)c1-n1cccc1` [Example 227, Methyl 3-(3-(4-(3-(3-chlorophenyl)thioureido)phenoxy)azetidin-1-yl)-2-(1H-pyrrol-1-yl)benzoate]: the inhibition at 50 µM fell in the range of 10 to 30%.

As for `COC(=O)c1cccc(N2CC(Oc3ccc(NC(=S)Nc4cccc(C#N)c4)cc3)C2)c1-n1cccc1` [Example 228, Methyl 3-(3-(4-(3-(3-cyanophenyl)thioureido)phenoxy)azetidin-1-yl)-2-(1H-pyrrol-1-yl)benzoate], the inhibition at 50 µM was greater than 50%.

In the case of `COC(=O)c1cccc(N2CC(Oc3ccc(NC(=O)Nc4ccc(C(F)(F)F)cc4)cc3)C2)c1-n1cccc1` [Example 229, Methyl 3-(3-(4-(3-(4-(trifluoromethyl)phenyl)ureido)phenoxy)azetidin-1-yl)-2-(1H-pyrrol-1-yl)benzoate], the inhibition at 50 µM was greater than 50%.

For the compound `O=C(Nc1ccc(OC2CN(c3cccc(C(=O)O)c3-n3cccc3)C2)cc1)Nc1ccc(C(F)(F)F)cc1` [Example 230, 3-(3-(4-(3-(4-(trifluoromethyl)phenyl)ureido)phenoxy)azetidin-1-yl)-2-(1H-pyrrol-1-yl)benzoic acid], the inhibition at 50 µM was in the range of 10 to 30%.

Take `O=C(NCc1cccs1)c1cccc(N2CC(Oc3ccc(CO)cc3)C2)c1-n1cccc1` [Example 231, N-(thiophen-2-yl-methyl)-3-(3-(4-(hydroxymethyl)phenoxy)azetidin-1-yl)-2-(1H-pyrrol-1-yl)benzamide]: the inhibition at 50 µM lay in the range of 10 to 30%.

In the case of `CCOCc1ccc(OC2CN(c3cccc(C(=O)OCC)c3-n3cccc3)C2)cc1` [Example 232, Ethyl 3-(3-(4-(ethoxymethyl)phenoxy)azetidin-1-yl)-2-(1H-pyrrol-1-yl)benzoate], the inhibition at 50 µM is less than 10%.

As for `CCOCc1ccc(OC2CN(c3cccc(C(=O)O)c3-n3cccc3)C2)cc1` [Example 233, 3-(3-(4-(ethoxymethyl)phenoxy)azetidin-1-yl)-2-(1H-pyrrol-1-yl)benzoic acid], the inhibition at 50 µM is less than 10%.

On to `COC(=O)c1cccc(N2CC(Oc3ccc(CN4CCOCC4)cc3)C2)c1-n1cccc1` [Example 235, Methyl 3-(3-(4-(morpholinylmethyl)phenoxy)azetidin-1-yl)-2-(1H-pyrrol-1-yl)benzoate], for which the inhibition at 50 µM lay within 30 to 50%.

Regarding `COC(=O)c1cccc(N2CC(Oc3ccc(COC(=S)Nc4ccc(Cl)cc4)cc3)C2)c1-n1cccc1` [Example 236, Methyl 3-(3-(4-((((4-chlorophenyl)thiocarbamoyl)oxy)methyl)phenoxy)azetidin-1-yl)-2-(1H-pyrrol-1-yl)benzoate], the inhibition at 50 µM was in the range of 10 to 30%.

In the case of `O=C(Nc1ccc(Cl)cc1)OCc1ccc(OC2CN(c3cccc(C(=O)O)c3-n3cccc3)C2)cc1` [Example 237], the inhibition at 50 µM is less than 10%.

Take `CCNC(=S)OCc1ccc(OC2CN(c3cccc(C(=O)OC)c3-n3cccc3)C2)cc1` [Example 238]: the inhibition at 50 µM fell in the range of 10 to 30%.

As to `CCNC(=S)OCc1ccc(OC2CN(c3cccc(C(=O)O)c3-n3cccc3)C2)cc1` [Example 239], the inhibition at 50 µM was less than 10%.

For the compound `COC(=O)c1cccc(N2CC(Oc3ccc(COc4ccc(Cl)cc4)cc3)C2)c1-n1cccc1` [Example 240, Methyl 3-(3-(4-((4-chlorophenoxy)methyl)phenoxy)azetidin-1-yl)-2-(1H-pyrrol-1-yl)benzoate], the inhibition at 50 µM is less than 10%.

For the compound `O=C(O)c1cccc(N2CC(Oc3ccc(COc4ccc(Cl)cc4)cc3)C2)c1-n1cccc1` [Example 241, 3-(3-(4-((4-chlorophenoxy)methyl)phenoxy)azetidin-1-yl)-2-(1H-pyrrol-1-yl)benzoic acid], the inhibition at 50 µM is less than 10%.

For the compound `COC(=O)c1cccc(N2CC(Oc3ccc(CNC(=O)NC4CC4)cc3)C2)c1-n1cccc1` [Example 242, Methyl 3-(3-(4-((3-cyclopropylureido)methyl)phenoxy)azetidin-1-yl)-2-(1H-pyrrol-1-yl)benzoate], the inhibition at 50 µM fell in the range of 10 to 30%.

Take `COC(=O)c1cccc(N2CC(Oc3ccc(COc4cccnc4)cc3)C2)c1-n1cccc1` [Example 243, Methyl 3-(3-(4-((pyridin-3-yl-oxy)methyl)phenoxy)azetidin-1-yl)-2-(1H-pyrrol-1-yl)benzoate]: the inhibition at 50 µM is greater than 50%.

Consider `O=C(O)c1cccc(N2CC(Oc3ccc(COc4cccnc4)cc3)C2)c1-n1cccc1` [Example 244, 3-(3-(4-((pyridin-3-yl-oxy)methyl)phenoxy)azetidin-1-yl)-2-(1H-pyrrol-1-yl)benzoic acid], for which the inhibition at 50 µM lay within 30 to 50%.

Turning to `COC(=O)c1cccc(N2CC(Oc3ccc(COc4ccc(F)cc4)cc3)C2)c1-n1cccc1` [Example 245, Methyl 3-(3-(4-((4-fluorophenoxy)methyl)phenoxy)azetidin-1-yl)-2-(1H-pyrrol-1-yl)benzoate], the inhibition at 50 µM is less than 10%.

For the compound `O=C(O)c1cccc(N2CC(Oc3ccc(COc4ccc(F)cc4)cc3)C2)c1-n1cccc1` [Example 246, 3-(3-(4-((4-fluorophenoxy)methyl)phenoxy)azetidin-1-yl)-2-(1H-pyrrol-1-yl)benzoic acid], the inhibition at 50 µM was less than 10%.

With `COC(=O)c1cccc(N2CC(Oc3ccc(COc4cccc(F)c4)cc3)C2)c1-n1cccc1` [Example 247, Methyl 3-(3-(4-((3-fluorophenoxy)methyl)phenoxy)azetidin-1-yl)-2-(1H-pyrrol-1-yl)benzoate], the inhibition at 50 µM is 10 to 30%.

On to `O=C(O)c1cccc(N2CC(Oc3ccc(COc4cccc(F)c4)cc3)C2)c1-n1cccc1` [Example 248, 3-(3-(4-((3-fluorophenoxy)methyl)phenoxy)azetidin-1-yl)-2-(1H-pyrrol-1-yl)benzoic acid], for which the inhibition at 50 µM is less than 10%.

With `COC(=O)c1cccc(N2CC(Oc3ccc(COc4cccc(C(F)(F)F)c4)cc3)C2)c1-n1cccc1` [Example 249, Methyl 3-(3-(4-((3-(trifluoromethyl)phenoxy)methyl)phenoxy)azetidin-1-yl)-2-(1H-pyrrol-1-yl)benzoate], the inhibition at 50 µM was less than 10%.

As for `O=C(O)c1cccc(N2CC(Oc3ccc(COc4cccc(C(F)(F)F)c4)cc3)C2)c1-n1cccc1` [Example 250, 3-(3-(4-((3-(trifluoromethyl)phenoxy)methyl)phenoxy)azetidin-1-yl)-2-(1H-pyrrol-1-yl)benzoic acid], the inhibition at 50 µM was 10 to 30%.

On to `COC(=O)c1cccc(N2CC(Oc3ccc(CO)c(C)c3)C2)c1-n1cccc1` [Example 251, Methyl 3-(3-(4-(hydroxymethyl)-3-methylphenoxy)azetidin-1-yl)-2-(1H-pyrrol-1-yl)benzoate], for which the inhibition at 50 µM is greater than 50%.

`Cc1cc(OC2CN(c3cccc(C(=O)O)c3-n3cccc3)C2)ccc1CO` [Example 252, 3-(3-(4-(hydroxymethyl)-3-methylphenoxy)azetidin-1-yl)-2-(1H-pyrrol-1-yl)benzoic acid]: the inhibition at 50 µM is less than 10%.

As for `COC(=O)c1cccc(N2CC(Oc3ccc(N)cc3)C2)c1-n1cccc1` [Example 253, Methyl 3-(3-(4-aminophenoxy)azetidin-1-yl)-2-(1H-pyrrol-1-yl)benzoate], the inhibition at 50 µM is 10 to 30%.

As for `Nc1ccc(OC2CN(c3cccc(C(=O)O)c3-n3cccc3)C2)cc1` [Example 254, 3-(3-(4-aminophenoxy)azetidin-1-yl)-2-(1H-pyrrol-1-yl)benzoic acid], the inhibition at 50 µM is less than 10%.

Take `COC(=O)c1cccc(N2CC(Oc3ccccc3N)C2)c1-n1cccc1` [Example 255, Methyl 3-(3-(2-aminophenoxy)azetidin-1-yl)-2-(1H-pyrrol-1-yl)benzoate]: the inhibition at 50 µM is greater than 50%.

`Nc1ccccc1OC1CN(c2cccc(C(=O)O)c2-n2cccc2)C1` [Example 256, 3-(3-(2-aminophenoxy)azetidin-1-yl)-2-(1H-pyrrol-1-yl)benzoic acid]: the inhibition at 50 µM is greater than 50%.

Turning to `COC(=O)c1cccc(N2CC(Oc3ccccc3)C2)c1-n1cccc1` [Example 257, Methyl 3-((3-phenoxy)azetidin-1-yl)-2-(1H-pyrrol-1-yl)benzoate], the “C666-1 cell viability single concentration (50 μM) inhibition rate, Ratio* (Inh %)” value is listed as “++ (10%-30% ++)”.

As for `COC(=O)c1cccc(N2CC(Oc3cccnc3)C2)c1-n1cccc1` [Example 259, Methyl 3-(3-(pyridin-3-yloxy)azetidin-1-yl)-2-(1H-pyrrol-1-yl)benzoate], the inhibition at 50 µM was 10 to 30%.

On to `O=C(O)c1cccc(N2CC(Oc3cccnc3)C2)c1-n1cccc1` [Example 260, 3-(3-(pyridin-3-yloxy)azetidin-1-yl)-2-(1H-pyrrol-1-yl)benzoic acid], for which the inhibition at 50 µM was less than 10%.

Turning to `COC(=O)c1cccc(N2CC(Oc3ccc(-c4csc(NS(C)(=O)=O)n4)cc3)C2)c1-n1cccc1` [Example 261, Methyl 3-(3-(4-(2-(methylsulfonamido)thiazol-4-yl)phenoxy)azetidin-1-yl)-2-(1H-pyrrol-1-yl)benzoate], the inhibition at 50 µM was less than 10%.

As for `CS(=O)(=O)Nc1nc(-c2ccc(OC3CN(c4cccc(C(=O)O)c4-n4cccc4)C3)cc2)cs1` [Example 262, 3-(3-(4-(2-(methylsulfonamido)thiazol-4-yl)phenoxy)azetidin-1-yl)-2-(1H-pyrrol-1-yl)benzoic acid], the inhibition at 50 µM was less than 10%.

Regarding `COC(=O)c1cccc(N2CC(Oc3ccc(C(=O)N4CCOCC4)cc3)C2)c1-n1cccc1` [Example 265, Methyl 3-(3-(4-(morpholinyl-4-carbonyl)phenoxy)azetidin-1-yl)-2-(1H-pyrrol-1-yl)benzoate], the inhibition at 50 µM fell in the range of 10 to 30%.
